Measurements reported in patent US20230000853A1, “PHARMACEUTICAL COMPOSITION CONTAINING NITROXOLINE, NITROXOLINE TABLET, PREPARATION METHOD THEREFOR AND USE THEREOF” (JIANGSU YAHONG MEDITECH CO., LTD., priority 2019, published 2023).

How the values were obtained:
[1] = Particle size determination by Malvern laser particle size analyzer, wet method; assay type: physicochemical; conditions: pulverized raw material; dispersant 0.5% aqueous Tween 80
Procedure: The initial particle size D90 of the raw material nitroxoline or nitroxoline lysine salt was more than 100 μm. The raw material was pulverized with the mechanical mill to obtain the raw material having the particle size I, II, III or V in the following Table 1. The raw material was pulverized with the jet mill to obtain the raw material having the particle size IV in the following Table 1.
Determination was carried out on the Malvern laser particle size analyzer MS2000 by wet method according to the operation requirements of the instrument, the dispersant was an aqueous Tween 80 solution, and the mass fraction of Tween 80 in the aqueous solution was 0.5%.

[2] = low solubility and high permeability; cited from earlier work
[3] = target: T1, silence information regulator 2-related enzyme SIRT1 (Homo sapiens, UniProt Q96EB6); conditions: vascular endothelial cells; cited from earlier work
T1 construct: host or cells: vascular endothelial cells
T1 sequence (Q96EB6 1-747): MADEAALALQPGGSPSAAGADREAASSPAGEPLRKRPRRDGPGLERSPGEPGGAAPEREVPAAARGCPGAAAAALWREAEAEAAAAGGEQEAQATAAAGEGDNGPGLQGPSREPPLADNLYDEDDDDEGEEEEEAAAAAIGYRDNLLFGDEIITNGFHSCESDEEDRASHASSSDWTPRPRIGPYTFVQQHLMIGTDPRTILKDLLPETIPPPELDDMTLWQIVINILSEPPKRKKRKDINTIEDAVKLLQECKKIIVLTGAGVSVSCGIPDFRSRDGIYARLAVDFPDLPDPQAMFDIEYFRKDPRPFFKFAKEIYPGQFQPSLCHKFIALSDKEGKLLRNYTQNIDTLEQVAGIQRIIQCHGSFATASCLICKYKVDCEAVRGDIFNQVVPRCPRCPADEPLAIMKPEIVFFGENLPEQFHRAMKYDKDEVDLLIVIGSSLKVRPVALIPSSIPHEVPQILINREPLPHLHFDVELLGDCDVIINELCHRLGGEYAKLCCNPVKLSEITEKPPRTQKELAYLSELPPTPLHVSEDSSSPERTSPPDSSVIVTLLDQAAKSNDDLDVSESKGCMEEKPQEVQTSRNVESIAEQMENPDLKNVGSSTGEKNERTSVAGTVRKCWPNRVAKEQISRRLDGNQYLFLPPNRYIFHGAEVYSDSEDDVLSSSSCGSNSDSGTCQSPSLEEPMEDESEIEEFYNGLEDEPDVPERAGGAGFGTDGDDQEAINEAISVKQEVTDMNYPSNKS

[4] = Solubility and dissolution of nitroxoline in aqueous media; assay type: physicochemical; conditions: 0.1 mol/L hydrochloric acid, water and phosphate buffer (pH 6.8) at 37° C.
Excerpt: In addition, the resulting nitroxoline tablets have uniform content, narrow variation range in hardness, and good fluidity and compressibility.

[5] = target: T2, methionine aminopeptidase MetAP2 (Homo sapiens, UniProt P50579); conditions: vascular endothelial cells; cited from earlier work
T2 construct: host or cells: vascular endothelial cells
T2 sequence (P50579 whole entry): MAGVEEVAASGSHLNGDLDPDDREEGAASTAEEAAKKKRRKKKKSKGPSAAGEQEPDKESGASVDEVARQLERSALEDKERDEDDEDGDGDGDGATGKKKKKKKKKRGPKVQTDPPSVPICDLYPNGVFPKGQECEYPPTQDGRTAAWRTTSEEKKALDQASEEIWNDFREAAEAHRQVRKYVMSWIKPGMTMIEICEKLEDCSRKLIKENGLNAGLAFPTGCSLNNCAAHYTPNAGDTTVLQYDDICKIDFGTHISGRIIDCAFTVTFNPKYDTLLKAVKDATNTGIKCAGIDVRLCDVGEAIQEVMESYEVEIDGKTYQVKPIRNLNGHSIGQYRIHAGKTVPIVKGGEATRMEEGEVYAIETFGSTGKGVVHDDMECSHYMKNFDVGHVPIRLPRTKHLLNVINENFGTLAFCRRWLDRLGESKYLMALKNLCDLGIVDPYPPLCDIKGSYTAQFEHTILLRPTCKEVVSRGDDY

Structure (SMILES)	Particle size D10 [1] [μm]	Particle size D50 [1] [μm]	Particle size D90 [1] [μm]	BCS class [2]	Inhibition of SIRT1 [3]	Solubility and dissolution [4]	Inhibition of MetAP2 [5]
O=[N+]([O-])c1ccc(O)c2ncccc12 [IV (Nitroxoline), Nitroxoline]	0.12	4.58	12.61				
NCCCC[C@H](N)C(=O)O.O=[N+]([O-])c1ccc(O)c2ncccc12 [V (Nitroxoline lysine salt), Nitroxoline lysine salt]	3.67	10.88	43.29				
O=[N+]([O-])c1ccc(O)c2ncccc12 [I (Nitroxoline), Nitroxoline]	5.66	33.60	99.31				
O=[N+]([O-])c1ccc(O)c2ncccc12 [III (Nitroxoline), Nitroxoline]	3.44	11.02	42.55				
O=[N+]([O-])c1ccc(O)c2ncccc12 [nitroxoline, 5-nitro-8-hydroxyquinoline]				BCS class II	inhibit	low solubility and slow dissolution	inhibit
O=[N+]([O-])c1ccc(O)c2ncccc12 [II (Nitroxoline), Nitroxoline]	3.99	14.95	70.58				
